Reference: patent US9242987B2, “Heterocyclyl pyrazolopyrimidine analogues as JAK inhibitors” (Cellzome Limited, priority 2009, dated 2016)
pIC50: −log10 of the molar value.

Legend:
JAK2 = molecular target: T1, JAK2 (Homo sapiens, UniProt O60674); test: Kinobeads assay, JAK2; assay type: binding; conditions: mixed Molt4/Ramos cell lysate, dot blot detection
T1 construct: endogenous in cells; host or cells: Mixed Molt4/Ramos lysate (1:2)
Method: (§1) The compounds of the present invention as described in the previous examples were tested in a Kinobeads™ assay as described for ZAP-70 (WO-A 2007/137867). Briefly, test compounds (at various concentrations) and the affinity matrix with the immobilized aminopyrido-pyrimidine ligand 24 were added to cell lysate aliquots and allowed to bind to the proteins in the lysate sample. After the incubation time the beads with captured proteins were separated from the lysate. Bound proteins were then eluted and the presence of JAK2 and JAK3 was detected and quantified using specific antibodies in a dot blot procedure and the Odyssey infrared detection system. Dose response curves for individual kinases were generated and IC50 values calculated. Kinobeads™ assays for ZAP-70 (WO-A 2007/137867) and for kinase selectivity profiling (WO-A 2006/134056) have been previously described.
(§2) The affinity matrix was washed two times with 15 mL of 1×DP buffer containing 0.2% NP40 (IGEPAL® CA-630, Sigma, #13021) and then resuspended in 1×DP buffer containing 0.2% NP40 (3% beads slurry).
(§3) 5×DP buffer: 250 mM Tris-HCl pH 7.4, 25% Glycerol, 7.5 mM MgCl2, 750 mM NaCl, 5 mM Na3VO4; filter the 5×DP buffer through a 0.22 μm filter and store in aliquots at −80° C. The 5×DP buffer is diluted with H2O to 1×DP buffer containing 1 mM DTT and 25 mM NaF.
(§4) Stock solutions of test compounds were prepared in DMSO. In a 96 well plate 30 μL solution of diluted test compounds at 5 mM in DMSO were prepared. Starting with this solution a 1:3 dilution series (9 steps) was prepared. For control experiments (no test compound) a buffer containing 2% DMSO was used.
(§5) Molt4 cells (ATCC catalogue number CRL-1582) and Ramos cells (ATCC catalogue number CRL-1596) were grown in 1 L Spinner flasks (Integra Biosciences, #182101) in suspension in RPMI 1640 medium (Invitrogen, #21875-034) supplemented with 10% Fetal Bovine Serum (Invitrogen) at a density between 0.15×10^6 and 1.2×10^6 cells/mL. Cells were harvested by centrifugation, washed once with 1×PBS buffer (Invitrogen, #14190-094) and cell pellets were frozen in liquid nitrogen and subsequently stored at −80° C. Cells were homogenized in a Potter S homogenizer in lysis buffer: 50 mM Tris-HCl, 0.8% NP40, 5% glycerol, 150 mM NaCl, 1.5 mM MgCl2, 25 mM NaF, 1 mM sodium vanadate, 1 mM DTT, pH 7.5. One complete EDTA-free tablet (protease inhibitor cocktail, Roche Diagnostics, 1873580) per 25 mL buffer was added. The material was dounced 10 times using a mechanized POTTER S, transferred to 50 mL falcon tubes, incubated for 30 minutes on ice and spun down for 10 minutes at 20,000 g at 4° C. (10,000 rpm in Sorvall SLA600, precooled). The supernatant was transferred to an ultracentrifuge (UZ)-polycarbonate tube (Beckmann, 355654) and spun for 1 hour at 100.000 g at 4° C. (33.500 rpm in Ti50.2, precooled). The supernatant was transferred again to a fresh 50 mL falcon tube, the protein concentration was determined by a Bradford assay (BioRad) and samples containing 50 mg of protein per aliquot were prepared. The samples were immediately used for experiments or frozen in liquid nitrogen and stored frozen at −80° C.
(§6) Cell lysate (approximately 50 mg protein per plate) was thawed in a water bath at room temperature and then stored on ice. To the thawed cell lysate 1×DP 0.8% NP40 buffer containing protease inhibitors (1 tablet for 25 mL buffer; EDTA-free protease inhibitor cocktail; Roche Diagnostics 1873580) was added in order to reach a final protein concentration of 10 mg/mL total protein. The diluted cell lysate was stored on ice. Mixed Molt4/Ramos lysate was prepared by combining one volume of Molt4 lysate and two volumes of Ramos lysate (ratio 1:2).
(§7) To a 96 well filter plate (Multiscreen HTS, BV Filter Plates, Millipore #MSBVN1250) were added per well: 100 μL affinity matrix (3% beads slurry), […], of compound solution, and 50 μL of diluted lysate. […]

JAK3 = molecular target: T2, JAK3 (Homo sapiens, UniProt P52333); test: Kinobeads assay, JAK3; assay type: binding; conditions: mixed Molt4/Ramos cell lysate, dot blot detection
T2 construct: endogenous in cells; host or cells: Mixed Molt4/Ramos lysate (1:2)
T2 sequence (P52333 1-1124): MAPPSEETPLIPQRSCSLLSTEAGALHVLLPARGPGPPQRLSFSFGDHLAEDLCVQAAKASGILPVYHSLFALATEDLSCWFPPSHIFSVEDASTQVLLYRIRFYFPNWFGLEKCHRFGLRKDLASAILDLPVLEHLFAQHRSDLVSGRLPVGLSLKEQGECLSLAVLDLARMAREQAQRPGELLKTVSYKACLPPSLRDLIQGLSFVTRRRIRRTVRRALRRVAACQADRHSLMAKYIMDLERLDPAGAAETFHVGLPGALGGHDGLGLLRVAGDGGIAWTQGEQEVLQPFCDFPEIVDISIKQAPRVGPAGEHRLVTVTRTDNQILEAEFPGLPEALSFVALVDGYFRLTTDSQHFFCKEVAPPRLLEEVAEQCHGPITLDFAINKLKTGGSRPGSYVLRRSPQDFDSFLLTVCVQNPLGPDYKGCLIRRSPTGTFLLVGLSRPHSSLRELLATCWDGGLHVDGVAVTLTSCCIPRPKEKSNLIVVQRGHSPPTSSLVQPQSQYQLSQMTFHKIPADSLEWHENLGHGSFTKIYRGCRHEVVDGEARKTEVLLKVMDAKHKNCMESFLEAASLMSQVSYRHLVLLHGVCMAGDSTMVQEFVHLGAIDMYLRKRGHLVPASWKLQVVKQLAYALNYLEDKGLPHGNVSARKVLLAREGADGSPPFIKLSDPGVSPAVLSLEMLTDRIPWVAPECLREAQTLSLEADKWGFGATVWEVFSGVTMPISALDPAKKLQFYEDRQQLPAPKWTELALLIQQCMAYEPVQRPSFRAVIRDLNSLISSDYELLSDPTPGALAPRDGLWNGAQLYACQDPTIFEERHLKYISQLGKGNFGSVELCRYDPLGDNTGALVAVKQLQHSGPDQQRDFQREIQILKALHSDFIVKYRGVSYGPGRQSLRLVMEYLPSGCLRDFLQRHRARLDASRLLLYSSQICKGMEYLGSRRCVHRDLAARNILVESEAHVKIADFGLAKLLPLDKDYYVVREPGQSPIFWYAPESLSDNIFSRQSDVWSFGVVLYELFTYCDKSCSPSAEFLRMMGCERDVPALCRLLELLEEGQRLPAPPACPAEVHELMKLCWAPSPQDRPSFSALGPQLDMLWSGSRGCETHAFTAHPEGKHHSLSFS
Method: as §1, §2, §3, §4, §5, §6, §7

T1 sequence (O60674 whole entry): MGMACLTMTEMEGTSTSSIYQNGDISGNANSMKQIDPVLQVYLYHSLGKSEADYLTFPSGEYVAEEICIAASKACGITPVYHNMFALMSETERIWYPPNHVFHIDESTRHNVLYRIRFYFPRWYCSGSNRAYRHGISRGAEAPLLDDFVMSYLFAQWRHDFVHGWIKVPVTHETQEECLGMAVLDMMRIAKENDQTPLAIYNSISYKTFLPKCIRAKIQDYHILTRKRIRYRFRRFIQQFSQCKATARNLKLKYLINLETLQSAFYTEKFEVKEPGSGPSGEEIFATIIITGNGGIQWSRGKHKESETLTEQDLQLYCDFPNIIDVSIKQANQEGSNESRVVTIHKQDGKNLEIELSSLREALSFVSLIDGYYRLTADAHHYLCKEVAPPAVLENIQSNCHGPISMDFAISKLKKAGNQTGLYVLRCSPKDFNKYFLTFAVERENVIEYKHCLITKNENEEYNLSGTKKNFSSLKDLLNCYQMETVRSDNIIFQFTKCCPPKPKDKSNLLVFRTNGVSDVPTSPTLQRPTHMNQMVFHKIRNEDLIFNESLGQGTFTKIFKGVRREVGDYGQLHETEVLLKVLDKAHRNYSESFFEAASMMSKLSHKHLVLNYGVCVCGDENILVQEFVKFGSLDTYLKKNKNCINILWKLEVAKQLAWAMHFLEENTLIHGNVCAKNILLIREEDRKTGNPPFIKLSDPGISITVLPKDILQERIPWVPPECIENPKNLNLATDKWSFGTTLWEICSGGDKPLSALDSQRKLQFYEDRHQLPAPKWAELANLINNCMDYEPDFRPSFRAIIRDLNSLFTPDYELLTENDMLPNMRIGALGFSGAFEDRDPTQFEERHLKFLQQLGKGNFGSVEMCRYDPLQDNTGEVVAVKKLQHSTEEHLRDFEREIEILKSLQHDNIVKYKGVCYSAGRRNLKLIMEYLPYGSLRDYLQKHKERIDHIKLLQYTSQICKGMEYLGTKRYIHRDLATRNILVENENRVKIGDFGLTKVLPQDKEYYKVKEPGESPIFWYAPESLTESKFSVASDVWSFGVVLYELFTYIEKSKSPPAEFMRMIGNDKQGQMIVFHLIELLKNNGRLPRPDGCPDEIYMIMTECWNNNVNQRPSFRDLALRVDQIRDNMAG

pIC50 (JAK2)	pIC50 (JAK3)	Compound
6.00 to 7.00	6.00 to 7.00	CN(c1ccc(-n2ncc3cnc(Nc4cnn(C)c4)nc32)cc1)S(C)(=O)=O [Example 17, N-Methyl-N-(4-(6-(1-methyl-1H-pyrazol-4-ylamino)-1H-pyrazolo[3,4-d]pyrimidin-1-yl)phenyl)methanesulfonamide]
6.00 to 7.00	> 7.00	Cn1cc(Nc2ncc3cnn(-c4ccc(NS(C)(=O)=O)cc4)c3n2)cn1 [Example 18, N-(4-(6-(1-Methyl-1H-pyrazol-4-ylamino)-1H-pyrazolo[3,4-d]pyrimidin-1-yl)phenyl)methanesulfonamide]
≤ 5.00	5.00 to 6.00	CC(C)n1ccc(Nc2ncc3cnn(Cc4ccccc4C#N)c3n2)n1 [Example 19, 2-((6-(1-Isopropyl-1H-pyrazol-3-ylamino)-1H-pyrazolo[3,4-d]pyrimidin-1-yl)methyl)benzonitrile]
5.00 to 6.00	> 7.00	N#CCCCn1cc(Nc2ncc3cnn(Cc4ccccc4C#N)c3n2)cn1 [Example 20, 2-((6-(1-(3-Cyanopropyl)-1H-pyrazol-4-ylamino)-1H-pyrazolo[3,4-d]pyrimidin-1-yl)methyl)benzonitrile]
≤ 5.00	6.00 to 7.00	CCCn1cc(Nc2ncc3cnn(Cc4ccccc4C#N)c3n2)c(C)n1 [Example 21, 2-((6-(3-Methyl-1-propyl-1H-pyrazol-4-ylamino)-1H-pyrazolo[3,4-d]pyrimidin-1-yl)methyl)benzonitrile]
≤ 5.00	> 7.00	Cc1nn(CC(F)F)cc1Nc1ncc2cnn(Cc3ccccc3C#N)c2n1 [Example 22, 2-((6-(1-(2,2-Difluoroethyl)-3-methyl-1H-pyrazol-4-ylamino)-1H-pyrazolo[3,4-d]pyrimidin-1-yl)methyl)benzonitrile]
≤ 5.00	6.00 to 7.00	COCCn1cc(Nc2ncc3cnn(Cc4ccccc4C#N)c3n2)c(C)n1 [Example 23, 2-((6-(1-(2-methoxyethyl)-3-methyl-1H-pyrazol-4-ylamino)-1H-pyrazolo[3,4-d]pyrimidin-1-yl)methyl)benzonitrile]
≤ 5.00	> 7.00	COc1nn(CC(F)F)cc1Nc1ncc2cnn(Cc3ccccc3C#N)c2n1 [Example 24, 2-((6-(1-(2,2-Difluoroethyl)-3-methoxy-1H-pyrazol-4-ylamino)-1H-pyrazolo[3,4-d]pyrimidin-1-yl)methyl)benzonitrile]
5.00 to 6.00	> 7.00	N#Cc1ccccc1Cn1ncc2cnc(Nc3cnn(CCO)c3)nc21 [Example 25, 2-((6-(1-(2-Hydroxyethyl)-1H-pyrazol-4-ylamino)-1H-pyrazolo[3,4-d]pyrimidin-1-yl)methyl)benzonitrile]
≤ 5.00	6.00 to 7.00	CC(c1ccccc1F)n1ncc2cnc(Nc3cnn(C)c3)nc21 (stereo not shown) [Example 26, 1-(1-(2-Fluorophenyl)ethyl)-N-(1-methyl-1H-pyrazol-4-yl)-1H-pyrazolo[3,4-d]pyrimidin-6-amine]
5.00 to 6.00	> 7.00	Cn1cc(Nc2ncc3cnn(Cc4ccccc4Cl)c3n2)cn1 [Example 27, 1-(2-Chlorobenzyl)-N-(1-methyl-1H-pyrazol-4-yl)-1H-pyrazolo[3,4-d]pyrimidin-6-amine]
5.00 to 6.00	> 7.00	COCCn1cc(Nc2ncc3cnn(Cc4ccccc4F)c3n2)cn1 [Example 28, 1-(2-Fluorobenzyl)-N-(1-(2-methoxyethyl)-1H-pyrazol-4-yl)-1H-pyrazolo[3,4-d]pyrimidin-6-amine]
5.00 to 6.00	> 7.00	Cn1cc(Nc2ncc3cnn(Cc4c(F)cccc4F)c3n2)cn1 [Example 29, 1-(2,6-Difluorobenzyl)-N-(1-methyl-1H-pyrazol-4-yl)-1H-pyrazolo[3,4-d]pyrimidin-6-amine]
> 7.00	> 7.00	Cn1cc(Nc2ncc3cnn(Cc4cc(F)ccc4F)c3n2)cn1 [Example 30, 1-(2,5-Difluorobenzyl)-N-(1-methyl-1H-pyrazol-4-yl)-1H-pyrazolo[3,4-d]pyrimidin-6-amine]
5.00 to 6.00	> 7.00	Cn1cc(Nc2ncc3cnn(Cc4cccc(F)c4F)c3n2)cn1 [Example 31, 1-(2,3-Difluorobenzyl)-N-(1-methyl-1H-pyrazol-4-yl)-1H-pyrazolo[3,4-d]pyrimidin-6-amine]
> 7.00	> 7.00	OCCn1cc(Nc2ncc3cnn(Cc4cc(F)ccc4F)c3n2)cn1 [Example 32, 2-(4-(1-(2,5-Difluorobenzyl)-1H-pyrazolo[3,4-d]pyrimidin-6-ylamino)-1H-pyrazol-1-yl)ethanol]
6.00 to 7.00	> 7.00	OCCn1cc(Nc2ncc3cnn(Cc4cccc(F)c4F)c3n2)cn1 [Example 33, 2-(4-(1-(2,3-Difluorobenzyl)-1H-pyrazolo[3,4-d]pyrimidin-6-ylamino)-1H-pyrazol-1-yl)ethanol]
6.00 to 7.00	> 7.00	OCCn1cc(Nc2ncc3cnn(Cc4ccccc4F)c3n2)cn1 [Example 34, 2-(4-(1-(2-Fluorobenzyl)-1H-pyrazolo[3,4-d]pyrimidin-6-ylamino)-1H-pyrazol-1-yl)ethanol]
5.00 to 6.00	> 7.00	Cn1cc(Nc2ncc3cnn(-c4ccc(S(N)(=O)=O)cc4)c3n2)cn1 [Example 35, 4-(6-(1-Methyl-1H-pyrazol-4-ylamino)-1H-pyrazolo[3,4-d]pyrimidin-1-yl)benzenesulfonamide]
≤ 5.00	6.00 to 7.00	COc1nn(CC(F)F)cc1Nc1ncc2cnn(Cc3ccccc3C(N)=O)c2n1 [Example 36, 2-((6-(1-(2,2-Difluoroethyl)-3-methoxy-1H-pyrazol-4-ylamino)-1H-pyrazolo[3,4-d]pyrimidin-1-yl)methyl)benzamide]
